≈ marks a conversion by molar mass, not a printed value.
Experiments:
Type in all cases: cell-based
[1] = test system: Salmonella enterica 14028 ΔtolC (efflux-deficient strain); experiment: microbe, parasite or virus in culture; settings: Salmonella enterica, read-out: MIC against Salmonella enterica 14028 ΔtolC
Experimental: (§1) Minimum inhibitory concentrations (MICs) were determined in triplicate according to Clinical and Laboratory Standards Institute (CLSI) guidelines using one or more strains of S. aureus or selected Gram-negative bacteria. […] Compounds were also assayed using a USA300 (Hidron, A. I., et al., Emergence of Community-Acquired Meticillin-Resistant Staphylococcus aureus Strain USA300 as a Cause of Necrotising Community-Onset Pneumonia. Lancet Infect. Dis. 2009, 9. 384-392) isolate of MRSA as well as a S. aureus strain isolated from a cystic fibrosis patient.

[2] = test system: Staphylococcus aureus D83N (29213-derived strain, GyrA substitution); experiment: microbe, parasite or virus in culture; settings: read-out: MIC against Staphylococcus aureus D83N
Experimental: as §1

[3] = test system: Staphylococcus aureus M121K (29213-derived strain, GyrA substitution); experiment: microbe, parasite or virus in culture; settings: read-out: MIC against Staphylococcus aureus M121K
Experimental: as §1

[4] = test system: Pseudomonas aeruginosa ATCC 27853; experiment: MIC, Pseudomonas aeruginosa ATCC 27853; settings: ATCC27853, read-out: MIC against Pseudomonas aeruginosa ATCC 27853
Experimental: as §1

[5] = test system: Staphylococcus aureus CF isolate; experiment: MIC, S. aureus cystic fibrosis isolate (CLSI); settings: read-out: MIC against Staphylococcus aureus CF isolate
Experimental: as §1

[6] = test system: Staphylococcus aureus ATCC 29213; experiment: MIC, S. aureus ATCC 29213 (CLSI); settings: ATCC29213, read-out: MIC against Staphylococcus aureus ATCC 29213
Experimental: as §1

[7] = test system: Staphylococcus aureus USA300 (MRSA isolate); experiment: MIC, S. aureus USA300 MRSA isolate (CLSI); settings: read-out: MIC against Staphylococcus aureus USA300
Experimental: as §1

[8] = test system: Salmonella enterica ATCC 14028; experiment: MIC, Salmonella enterica ATCC 14028; settings: ATCC14028, read-out: MIC against Salmonella enterica ATCC 14028
Experimental: as §1

[9] = test system: Acinetobacter baumanii ATCC 19606; experiment: MIC, Acinetobacter baumanii ATCC 19606; settings: Acinetobacter baumannii, ATCC19606, read-out: MIC against Acinetobacter baumanii ATCC 19606
Experimental: as §1

[10] = test system: Escherichia coli ATCC 25922; experiment: MIC, Escherichia coli ATCC 25922; settings: ATCC25922, read-out: MIC against Escherichia coli ATCC 25922
Experimental: as §1

Structure (SMILES) | MIC [1] [µg/mL] | MIC [2] [µg/mL] | MIC [3] [µg/mL] | also measured
COc1ccc2ncc(F)c(CCN3CCC(C(=O)Cc4ccc(C)cc4)CC3)c2n1 [Example 22, 1-(1-(2-(3-fluoro-6-methoxy-1,5-naphthyridin-4-yl)ethyl)piperidin-4-yl)-2-(p-tolyl)ethan-1-one] | 0.5 (≈ 1.19 µM) | 4 (≈ 9.49 µM) | 8 (≈ 19 µM) | MIC [4]: > 64 µg/mL; MIC [5]: 0.125 to 0.5 µg/mL (≈ 0.297 to 1.19 µM); MIC [6]: 0.125 µg/mL (≈ 0.297 µM); MIC [7]: 0.125 to 0.5 µg/mL (≈ 0.297 to 1.19 µM); MIC [8]: 64 µg/mL (≈ 152 µM); MIC [9]: 32 µg/mL (≈ 75.9 µM); MIC [10]: 16 µg/mL (≈ 38 µM)
COc1ccc2ncc(F)c(CCN3CCC(/C=C/c4ccc5c(c4)NC(=O)CO5)CC3)c2n1 [Example 3, (E)-6-(2-(1-(2-(3-fluoro-6-methoxy-1,5-naphthyridin-4-yl)ethyl)piperidin-4-yl)vinyl)-2H-benzo[b][1,4]oxazin-3(4H)-one] | 0.25 (≈ 0.541 µM) | 16 (≈ 34.6 µM) | 16 (≈ 34.6 µM) | MIC [4]: 4 µg/mL (≈ 8.65 µM); MIC [5]: 1 µg/mL (≈ 2.16 µM); MIC [6]: 0.5 µg/mL (≈ 1.08 µM); MIC [7]: ≤ 0.25 µg/mL; MIC [8]: 16 µg/mL (≈ 34.6 µM); MIC [9]: 8 µg/mL (≈ 17.3 µM); MIC [10]: 4 µg/mL (≈ 8.65 µM)
COc1ccc2ncc(F)c(CCN3CCC([C@@H](O)[C@H](O)c4ccc(C)cc4)CC3)c2n1 [Example 4, (1R,2R)-1-(1-(2-(3-fluoro-6-methoxy-1,5-naphthyridin-4-yl)ethyl)piperidin-4-yl)-2-(p-tolyl)ethane-1,2-diol] | 0.5 to 1 (≈ 1.14 to 2.28 µM) |  |  | 
COc1ccc2ncc(F)c(CCN3CCC([C@H](O)[C@@H](O)c4ccc5c(c4)NC(=O)CO5)CC3)c2n1 [Example 9, 6-((1S,2S)-2-(1-(2-(3-fluoro-6-methoxy-1,5-naphthyridin-4-yl)ethyl)piperidin-4-yl)-1,2-dihydroxyethyl)-2H-benzo[b][1,4]oxazin-3(4H)-one] | 0.25 (≈ 0.503 µM) | > 32 | > 32 | 
COc1ccc2ncc(F)c(CCN3CCC([C@@H](O)[C@H](O)c4ccc5c(c4)NC(=O)CO5)CC3)c2n1 [Example 6, 6-((1R,2R)-2-(1-(2-(3-fluoro-6-methoxy-1,5-naphthyridin-4-yl)ethyl)piperidin-4-yl)-1,2-dihydroxyethyl)-2H-benzo[b][1,4]oxazin-3(4H)-one] |  | > 32 | > 32 | 
COc1ccc2ncc(F)c(CCN3CCC(C(O)Cc4ccc5c(c4)OCCO5)CC3)c2n1 (centres unmarked) [Example 26, 2-(2,3-dihydrobenzo[b][1,4]dioxin-6-yl)-1-(1-(2-(3-fluoro-6-methoxy-1,5-naphthyridin-4-yl)ethyl)piperidin-4-yl)ethan-1-ol] |  | 4 (≈ 8.56 µM) | 4 (≈ 8.56 µM) | 
COc1ccc2ncc(F)c(CCN3CCC(CCc4ccc5c(c4)OCCO5)CC3)c2n1 [Example 20, 8-(2-(4-(2-(2,3-dihydrobenzo[b][1,4]dioxin-6-yl)ethyl)piperidin-1-yl)ethyl)-7-fluoro-2-methoxy-1,5-naphthyridine] | 0.25 (≈ 0.554 µM) | 8 (≈ 17.7 µM) | > 8 | 
COc1ccc2ncc(F)c(CCN3CCC(CCc4ccc(C)cc4)CC3)c2n1 [Example 19, 7-fluoro-2-methoxy-8-(2-(4-(4-methylphenethyl)piperidin-1-yl)ethyl)-1,5-naphthyridine] |  | 4 (≈ 9.82 µM) | > 16 | 
COc1ccc2ncc(F)c(CCN3CCC(C(O)C(O)c4ccc(C)cc4)CC3)c2n1 (single isomer, unassigned) [Example 13, 1-(1-(2-(3-fluoro-6-methoxy-1,5-naphthyridin-4-yl)ethyl)piperidin-4-yl)-2-(p-tolyl)ethane-1,2-diol] |  | > 32 |  | 
CN[C@H](CC(C)C)C(=O)N[C@H]1C(=O)N[C@@H](CC(N)=O)C(=O)N[C@H]2C(=O)N[C@H]3C(=O)N[C@H](C(=O)N[C@H](C(=O)O)c4cc(O)cc(O)c4-c4cc3ccc4O)[C@H](O)c3ccc(c(Cl)c3)Oc3cc2cc(c3O[C@@H]2O[C@H](CO)[C@@H](O)[C@H](O)[C@H]2O[C@H]2C[C@](C)(N)[C@H](O)[C@H](C)O2)Oc2ccc(cc2Cl)[C@H]1O [vancomycin, reference compound] |  | 1 (≈ 0.69 µM) | 1 (≈ 0.69 µM) | MIC [5]: 1 µg/mL (≈ 0.69 µM); MIC [6]: 1 to 2 µg/mL (≈ 0.69 to 1.38 µM); MIC [7]: 1 µg/mL (≈ 0.69 µM)
COc1ccc2ncc(F)c(CCN3CCC(C(O)Cc4ccc(C)cc4)CC3)c2n1 (centres unmarked) [Example 25, 1-(1-(2-(3-fluoro-6-methoxy-1,5-naphthyridin-4-yl)ethyl)piperidin-4-yl)-2-(p-tolyl)ethan-1-ol] | 1 (≈ 2.36 µM) | 8 (≈ 18.9 µM) | 8 (≈ 18.9 µM) | 
COc1ccc2ncc(F)c(CCN3CCC([C@@H](O)[C@H](O)c4ccc5c(c4)OCCO5)CC3)c2n1 [Example 5, (1R,2R)-1-(2,3-dihydrobenzo[b][1,4]dioxin-6-yl)-2-(1-(2-(3-fluoro-6-methoxy-1,5-naphthyridin-4-yl)ethyl)piperidin-4-yl)ethane-1,2-diol] | 0.5 (≈ 1.03 µM) |  |  | 
COc1ccc2ncc(F)c(CCN3CCC(C(=O)Cc4ccc5c(c4)OCCO5)CC3)c2n1 [Example 23, 2-(2,3-dihydrobenzo[b][1,4]dioxin-6-yl)-1-(1-(2-(3-fluoro-6-methoxy-1,5-naphthyridin-4-yl)ethyl)piperidin-4-yl)ethan-1-one] |  | 32 (≈ 68.7 µM) | > 32 | MIC [4]: > 64 µg/mL; MIC [5]: 8 µg/mL (≈ 17.2 µM); MIC [8]: > 64 µg/mL
COc1ccc2ncc(F)c(CCN3CCC(C(N)Cc4ccc5c(c4)NC(=O)CO5)CC3)c2n1 (centres unmarked) [Example 30, 6-(2-amino-2-(1-(2-(3-fluoro-6-methoxy-1,5-naphthyridin-4-yl)ethyl)piperidin-4-yl)ethyl)-2H-benzo[b][1,4]oxazin-3(4H)-one] |  |  | > 64 | 
COc1ccc2ncc(F)c(CCN3CCC([C@H](O)[C@@H](O)c4ccc(C)cc4)CC3)c2n1 [Example 7, (1S,2S)-1-(1-(2-(3-fluoro-6-methoxy-1,5-naphthyridin-4-yl)ethyl)piperidin-4-yl)-2-(p-tolyl)ethane-1,2-diol] |  | > 32 | > 32 | 
COc1ccc2ncc(F)c(CCN3CCC(CCc4ccc5c(c4)NC(=O)CO5)CC3)c2n1 [Example 21, 6-(2-(1-(2-(3-fluoro-6-methoxy-1,5-naphthyridin-4-yl)ethyl)piperidin-4-yl)ethyl)-2H-benzo[b][1,4]oxazin-3(4H)-one] |  |  | 64 (≈ 138 µM) | 
COc1ccc2ncc(F)c(CCN3CCC(C(N)Cc4ccc5c(c4)OCCO5)CC3)c2n1 (centres unmarked) [Example 29, 2-(2,3-dihydrobenzo[b][1,4]dioxin-6-yl)-1-(1-(2-(3-fluoro-6-methoxy-1,5-naphthyridin-4-yl)ethyl)piperidin-4-yl)ethan-1-amine] |  | > 16 | > 16 | 
COc1ccc2ncc(F)c(CCN3CCC(C(O)C(O)c4ccc(C)cc4)CC3)c2n1 (single isomer, unassigned) [Example 16, 1-(1-(2-(3-fluoro-6-methoxy-1,5-naphthyridin-4-yl)ethyl)piperidin-4-yl)-2-(p-tolyl)ethane-1,2-diol] |  |  | 4 (≈ 9.1 µM) | 
COc1ccc2ncc(F)c(CCN3CCC(C(O)Cc4ccc5c(c4)OCC(=O)N5)CC3)c2n1 (centres unmarked) [Example 27, 7-(2-(1-(2-(3-fluoro-6-methoxy-1,5-naphthyridin-4-yl)ethyl)piperidin-4-yl)-2-hydroxyethyl)-2H-benzo[b][1,4]oxazin-3(4H)-one] | ≤ 0.125 |  | 32 (≈ 66.6 µM) | 
COc1ccc2ncc(F)c(CCN3CCC(/C=C/c4ccc(C)cc4)CC3)c2n1 [Example 1, (E)-7-fluoro-2-methoxy-8-(2-(4-(4-methylstyryl)piperidin-1-yl)ethyl)-1,5-naphthyridine] | 0.5 to 1 (≈ 1.23 to 2.47 µM) |  | 2 to 4 (≈ 4.93 to 9.86 µM) | 
COc1ccc2ncc(F)c(CCN3CCC(C(N)Cc4ccc(C)cc4)CC3)c2n1 (centres unmarked) [Example 28, 1-(1-(2-(3-fluoro-6-methoxy-1,5-naphthyridin-4-yl)ethyl)piperidin-4-yl)-2-(p-tolyl)ethan-1-amine] |  | 32 (≈ 75.7 µM) | > 32 | 
COc1ccc2ncc(F)c(CCN3CCC(/C=C\c4ccc(C)cc4)CC3)c2n1 [Example 10, (Z)-7-fluoro-2-methoxy-8-(2-(4-(4-methylstyryl)piperidin-1-yl)ethyl)-1,5-naphthyridine] | 8 (≈ 19.7 µM) | 32 (≈ 78.9 µM) | 32 (≈ 78.9 µM) | 
COc1ccc2ncc(F)c(CCN3CCC(C(O)C(O)c4ccc5c(c4)NC(=O)CO5)CC3)c2n1 (single isomer, unassigned) [Example 15, 6-(-2-(1-(2-(3-fluoro-6-methoxy-1,5-naphthyridin-4-yl)ethyl)piperidin-4-yl)-1,2-dihydroxyethyl)-2H-benzo[b][1,4]oxazin-3(4H)-one] | 0.5 (≈ 1.01 µM) |  |  | 
